Measurements: ChEMBL document CHEMBL1201862, “PubChem BioAssay data set” (2004)
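Five compound concentrations were applied to cells in 96-well plates for 48 hours; endpoints were derived by simple linear interpolation of the resulting dose-response curve. GI50 = concentration required for 50% inhibition of growth.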 Calls of active or inactive are those of the source. Rule as the data show it: active = GI50 up to about 1.1 µM and inactive = higher.

Columns and labels:
Test in all cases: growth of human tumour cells (NCI), 48 h
786-0 = test system: 786-0
A549 = test system: A549
ACHN = test system: ACHN
CCRF-CEM = test system: CCRF-CEM
COLO 205 = test system: COLO 205
DU-145 = test system: DU-145
HCC 2998 = test system: HCC 2998
HCT-116 = test system: HCT-116
HL-60 = test system: HL-60
M14 = test system: M14
MDA-MB-231 = test system: MDA-MB-231
MDA-MB-435 = test system: MDA-MB-435
NCI-H226 = test system: NCI-H226
NCI-H460 = test system: NCI-H460
NCI/ADR-RES = test system: NCI/ADR-RES
PC-3 = test system: PC-3
RPMI-8226 = test system: RPMI-8226
SF-268 = test system: SF-268
SK-MEL-28 = test system: SK-MEL-28
U-251 = test system: U-251

Measured: GI50

O=C(Nc1cc2cc([N+](=O)[O-])ccc2oc1=O)c1cccs1
inactive: 786-0 89.5 µM | A549 43.8 µM | ACHN 49 µM | CCRF-CEM 11.3 µM | COLO 205 25.2 µM | DU-145 > 100 µM | HCC 2998 48.3 µM | HCT-116 25.4 µM | HL-60 16.7 µM | M14 58.7 µM | MDA-MB-231 34.9 µM | MDA-MB-435 25.2 µM | NCI-H226 44 µM | NCI-H460 51.2 µM | NCI/ADR-RES 62.2 µM | PC-3 37.8 µM | RPMI-8226 34 µM | SF-268 33.2 µM | SK-MEL-28 58.9 µM | U-251 19.8 µM

O=S1(=O)CCC2=CC(C(F)(F)F)=CC(C(F)(F)F)=CN21
active: 786-0 0.415 µM | ACHN 0.415 µM | CCRF-CEM 0.0738 µM | COLO 205 0.454 µM | DU-145 0.542 µM | HCT-116 0.245 µM | HL-60 0.168 µM | M14 0.693 µM | NCI/ADR-RES 1.09 µM | RPMI-8226 0.535 µM
inactive: A549 2.96 µM | HCC 2998 2.07 µM | MDA-MB-231 2.78 µM | MDA-MB-435 1.82 µM | NCI-H226 2.08 µM | NCI-H460 2.59 µM | PC-3 2.01 µM | SF-268 1.72 µM | SK-MEL-28 1.78 µM | U-251 1.83 µM

COC(=O)c1c(O)ccc2c1c1cc3ccccc3c(O)c1n2Cc1ccccc1Cl
inactive: 786-0 22.3 µM | A549 23.5 µM | ACHN 22.4 µM | CCRF-CEM 34.7 µM | COLO 205 16.8 µM | DU-145 31.3 µM | HCC 2998 20 µM | HCT-116 13.2 µM | HL-60 32.8 µM | M14 23.4 µM | MDA-MB-231 32.3 µM | MDA-MB-435 18.5 µM | NCI-H226 31.8 µM | NCI-H460 18.2 µM | NCI/ADR-RES 21.8 µM | PC-3 30 µM | RPMI-8226 20.4 µM | SF-268 19.3 µM | SK-MEL-28 14.5 µM | U-251 31.4 µM

CCOP(C)(=O)C(N)Cc1ccc(OC)c(OC)c1 (stereo not given)
inactive: 786-0 > 100 µM | A549 > 100 µM | ACHN > 100 µM | CCRF-CEM > 100 µM | COLO 205 > 100 µM | DU-145 > 100 µM | HCC 2998 > 100 µM | HCT-116 > 100 µM | HL-60 > 100 µM | M14 > 100 µM | MDA-MB-231 > 100 µM | MDA-MB-435 > 100 µM | NCI-H226 > 100 µM | NCI-H460 > 100 µM | NCI/ADR-RES > 100 µM | PC-3 > 100 µM | RPMI-8226 > 100 µM | SF-268 > 100 µM | SK-MEL-28 > 100 µM | U-251 > 100 µM

CN(C)CCNc1ccc2c(=O)n(CCN(C)C)c(=O)n3c4ccc([N+](=O)[O-])cc4c(=O)c1c23
active: 786-0 0.294 µM | A549 0.184 µM | ACHN 0.146 µM | CCRF-CEM 0.0382 µM | COLO 205 0.179 µM | DU-145 0.267 µM | HCC 2998 0.387 µM | HCT-116 0.0769 µM | HL-60 0.157 µM | M14 1 µM | MDA-MB-231 0.429 µM | MDA-MB-435 0.49 µM | NCI-H226 0.312 µM | NCI-H460 0.0838 µM | NCI/ADR-RES 0.251 µM | PC-3 0.482 µM | RPMI-8226 0.163 µM | SF-268 0.334 µM | SK-MEL-28 1.04 µM | U-251 0.34 µM

CC(=O)Oc1ccc2c(c1)c1c(OC(C)=O)c3ccccc3c(OC(C)=O)c1n2Cc1cccc(C)c1
inactive: 786-0 36.2 µM | A549 31.3 µM | ACHN 31.8 µM | CCRF-CEM 17.1 µM | COLO 205 60.5 µM | DU-145 > 100 µM | HCC 2998 22.8 µM | HCT-116 33.2 µM | HL-60 42.4 µM | M14 30.3 µM | MDA-MB-231 31.1 µM | MDA-MB-435 65.6 µM | NCI-H226 > 100 µM | NCI-H460 30.3 µM | NCI/ADR-RES > 100 µM | PC-3 52.4 µM | RPMI-8226 20.5 µM | SF-268 29.8 µM | SK-MEL-28 > 100 µM | U-251 22.3 µM

CN(C)c1cc2ccccc2oc1=O
inactive: 786-0 > 100 µM | A549 > 100 µM | ACHN > 100 µM | CCRF-CEM > 100 µM | COLO 205 > 100 µM | DU-145 > 100 µM | HCC 2998 > 100 µM | HCT-116 > 100 µM | HL-60 > 100 µM | M14 > 100 µM | MDA-MB-231 > 100 µM | MDA-MB-435 > 100 µM | NCI-H226 > 100 µM | NCI-H460 > 100 µM | NCI/ADR-RES > 100 µM | PC-3 > 100 µM | RPMI-8226 > 100 µM | SF-268 > 100 µM | SK-MEL-28 > 100 µM | U-251 > 100 µM

C=CC(C)(C)c1c(OC)oc2ccc(OC)c(C)c2c1=O
inactive: 786-0 > 100 µM | A549 > 100 µM | ACHN > 100 µM | CCRF-CEM > 100 µM | COLO 205 > 100 µM | DU-145 > 100 µM | HCC 2998 > 100 µM | HCT-116 89.7 µM | HL-60 70.6 µM | M14 > 100 µM | MDA-MB-231 > 100 µM | MDA-MB-435 > 100 µM | NCI-H226 > 100 µM | NCI-H460 > 100 µM | NCI/ADR-RES 96.8 µM | PC-3 78.7 µM | RPMI-8226 > 100 µM | SF-268 > 100 µM | SK-MEL-28 > 100 µM | U-251 > 100 µM

CC1(C)C(=O)N(O)C(C)(C)N1O
inactive: 786-0 > 10 µM | A549 > 10 µM | ACHN > 10 µM | CCRF-CEM > 10 µM | COLO 205 > 10 µM | DU-145 > 10 µM | HCC 2998 > 10 µM | HCT-116 > 10 µM | HL-60 > 10 µM | M14 > 10 µM | MDA-MB-231 > 10 µM | MDA-MB-435 > 10 µM | NCI-H226 > 10 µM | NCI-H460 > 10 µM | NCI/ADR-RES > 10 µM | PC-3 > 10 µM | RPMI-8226 > 10 µM | SF-268 > 10 µM | SK-MEL-28 > 10 µM | U-251 > 10 µM

COc1cc(C2c3cc4c(cc3OC3(OC)COC(=O)C23)OCO4)cc(OC)c1OC (stereo not given)
active: 786-0 0.353 µM | A549 0.375 µM | ACHN 0.618 µM | CCRF-CEM 0.305 µM | COLO 205 0.251 µM | DU-145 0.395 µM | HCC 2998 0.325 µM | HCT-116 0.267 µM | HL-60 0.263 µM | M14 0.272 µM | MDA-MB-231 0.29 µM | MDA-MB-435 0.0863 µM | NCI-H226 0.649 µM | NCI-H460 0.38 µM | NCI/ADR-RES 0.128 µM | PC-3 0.285 µM | RPMI-8226 0.284 µM | SF-268 0.514 µM | SK-MEL-28 0.4 µM | U-251 0.377 µM
